We go through 2 molecules from ChEMBL document CHEMBL1129592 (J Med Chem, 1996).

For experiment [1], the target named is 5-hydroxytryptamine receptor 2A (Rattus norvegicus, UniProt P14842). As to the kind of experiment: Binding affinity towards rat 5-hydroxytryptamine 2A receptor was evaluated using [3H]- ketanserin as radioligand.
The target in experiment [2] is T1, Adrenergic receptor alpha-2 (Rattus norvegicus, UniProt P22086+P19328+P22909).
T1 sequence (P22086 whole entry): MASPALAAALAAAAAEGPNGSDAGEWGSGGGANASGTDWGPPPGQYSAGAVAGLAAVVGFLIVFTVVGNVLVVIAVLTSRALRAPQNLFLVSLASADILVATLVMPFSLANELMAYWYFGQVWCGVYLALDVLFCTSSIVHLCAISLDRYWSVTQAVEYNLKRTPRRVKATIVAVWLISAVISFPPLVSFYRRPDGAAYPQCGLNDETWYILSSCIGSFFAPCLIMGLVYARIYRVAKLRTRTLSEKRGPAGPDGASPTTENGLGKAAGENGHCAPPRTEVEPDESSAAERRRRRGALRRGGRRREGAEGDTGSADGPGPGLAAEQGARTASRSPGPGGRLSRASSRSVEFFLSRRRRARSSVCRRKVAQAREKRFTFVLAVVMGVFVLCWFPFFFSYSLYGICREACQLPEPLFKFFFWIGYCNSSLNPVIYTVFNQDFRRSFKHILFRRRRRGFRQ
T1 sequence (P19328 whole entry): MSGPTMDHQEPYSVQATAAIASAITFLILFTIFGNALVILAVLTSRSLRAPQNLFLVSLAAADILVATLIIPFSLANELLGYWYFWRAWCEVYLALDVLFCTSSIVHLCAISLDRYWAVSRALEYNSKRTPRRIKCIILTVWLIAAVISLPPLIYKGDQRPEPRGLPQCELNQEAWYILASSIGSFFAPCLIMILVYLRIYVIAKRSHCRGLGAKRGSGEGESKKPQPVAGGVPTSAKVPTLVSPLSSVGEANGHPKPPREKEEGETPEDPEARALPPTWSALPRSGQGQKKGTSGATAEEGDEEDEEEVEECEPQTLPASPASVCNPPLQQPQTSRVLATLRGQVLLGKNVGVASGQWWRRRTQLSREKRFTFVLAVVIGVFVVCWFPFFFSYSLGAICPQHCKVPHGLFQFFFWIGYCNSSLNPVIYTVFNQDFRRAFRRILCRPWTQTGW
T1 sequence (P22909 whole entry): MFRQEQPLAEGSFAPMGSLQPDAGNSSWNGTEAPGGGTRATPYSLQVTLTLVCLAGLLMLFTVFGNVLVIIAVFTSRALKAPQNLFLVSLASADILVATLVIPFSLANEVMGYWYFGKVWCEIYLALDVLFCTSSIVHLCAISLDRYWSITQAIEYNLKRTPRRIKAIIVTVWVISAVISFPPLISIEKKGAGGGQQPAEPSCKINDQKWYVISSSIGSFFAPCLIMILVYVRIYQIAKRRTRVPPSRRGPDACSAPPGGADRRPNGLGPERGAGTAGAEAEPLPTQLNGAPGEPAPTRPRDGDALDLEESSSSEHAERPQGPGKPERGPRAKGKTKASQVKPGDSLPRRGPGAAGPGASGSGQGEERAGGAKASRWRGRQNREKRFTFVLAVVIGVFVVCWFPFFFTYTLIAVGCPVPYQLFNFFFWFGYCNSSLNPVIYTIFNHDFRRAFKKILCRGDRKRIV
The experiment in a line: Binding affinity towards rat Alpha-2 adrenergic receptor was evaluated using [3H]- yohimbine as radioligand. The class given is protein assay.

Experiment [3] can be described thus: Selectivity ratio of IC50 values of 5-hydroxytryptamine 1A receptor vs Alpha-2 adrenergic receptor.
The target of experiment [4] is T2, Adrenergic receptor alpha-1 (Rattus norvegicus, UniProt P15823+P23944+P43140).
T2 sequence (P15823 whole entry): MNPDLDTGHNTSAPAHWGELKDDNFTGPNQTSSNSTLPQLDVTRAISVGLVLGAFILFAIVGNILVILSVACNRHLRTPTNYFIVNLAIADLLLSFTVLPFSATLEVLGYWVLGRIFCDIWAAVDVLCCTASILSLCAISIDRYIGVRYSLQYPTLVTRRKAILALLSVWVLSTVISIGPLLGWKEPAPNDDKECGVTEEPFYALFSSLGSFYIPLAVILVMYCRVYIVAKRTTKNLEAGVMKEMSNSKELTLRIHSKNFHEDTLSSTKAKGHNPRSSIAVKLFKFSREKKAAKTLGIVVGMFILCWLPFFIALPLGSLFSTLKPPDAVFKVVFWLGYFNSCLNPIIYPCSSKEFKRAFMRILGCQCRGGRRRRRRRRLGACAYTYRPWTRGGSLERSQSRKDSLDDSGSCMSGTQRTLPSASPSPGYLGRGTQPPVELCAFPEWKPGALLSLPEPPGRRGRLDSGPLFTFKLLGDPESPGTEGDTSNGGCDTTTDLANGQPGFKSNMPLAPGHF
T2 sequence (P23944 whole entry): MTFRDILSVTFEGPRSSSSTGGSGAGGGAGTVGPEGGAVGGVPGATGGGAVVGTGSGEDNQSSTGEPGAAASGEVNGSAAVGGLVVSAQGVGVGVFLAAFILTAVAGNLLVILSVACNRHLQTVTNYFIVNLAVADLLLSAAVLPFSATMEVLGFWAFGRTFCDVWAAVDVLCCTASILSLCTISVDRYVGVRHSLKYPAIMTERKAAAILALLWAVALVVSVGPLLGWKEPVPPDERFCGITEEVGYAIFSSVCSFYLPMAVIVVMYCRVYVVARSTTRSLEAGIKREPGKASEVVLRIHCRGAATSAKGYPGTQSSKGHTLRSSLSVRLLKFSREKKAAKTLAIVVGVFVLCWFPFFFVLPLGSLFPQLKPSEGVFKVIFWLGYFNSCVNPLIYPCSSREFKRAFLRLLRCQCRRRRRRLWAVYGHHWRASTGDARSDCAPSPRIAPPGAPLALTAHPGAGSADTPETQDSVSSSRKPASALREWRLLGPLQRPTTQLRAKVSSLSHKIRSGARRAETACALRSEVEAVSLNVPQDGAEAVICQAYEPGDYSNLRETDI
T2 sequence (P43140 whole entry): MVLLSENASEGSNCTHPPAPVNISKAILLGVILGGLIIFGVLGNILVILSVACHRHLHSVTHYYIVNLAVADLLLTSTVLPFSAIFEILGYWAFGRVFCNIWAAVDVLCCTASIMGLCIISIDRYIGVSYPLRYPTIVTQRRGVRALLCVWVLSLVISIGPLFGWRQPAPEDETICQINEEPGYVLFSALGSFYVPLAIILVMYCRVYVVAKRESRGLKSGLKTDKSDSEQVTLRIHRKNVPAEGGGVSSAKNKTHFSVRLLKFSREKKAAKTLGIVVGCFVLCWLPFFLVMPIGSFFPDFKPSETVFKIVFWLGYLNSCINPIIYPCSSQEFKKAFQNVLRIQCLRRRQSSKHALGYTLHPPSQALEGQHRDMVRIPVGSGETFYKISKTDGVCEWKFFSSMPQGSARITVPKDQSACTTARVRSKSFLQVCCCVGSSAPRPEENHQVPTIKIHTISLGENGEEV
The experiment in a line: Binding affinity towards rat Alpha-1 adrenergic receptor was evaluated using [3H]- prazosin as radioligand. The class given is protein assay.

Experiment [5] is described as follows: Selectivity ratio of IC50 values of 5-hydroxytryptamine 1A receptor vs dopamine receptor D2.
For experiment [6], the target named is D(2) dopamine receptor (Rattus norvegicus, UniProt P61169). As to the kind of experiment: Binding affinity towards rat Dopamine receptor D2 was evaluated using [3H]- spiroperidol as radioligand.
The nature of experiment [7]: Selectivity ratio of IC50 values of 5-hydroxytryptamine 1A receptor vs 5-hydroxytryptamine 2 receptor.
The target in experiment [8] is T3, 5-hydroxytryptamine receptor 1A (Rattus norvegicus, UniProt P19327).
T3 sequence (P19327 whole entry): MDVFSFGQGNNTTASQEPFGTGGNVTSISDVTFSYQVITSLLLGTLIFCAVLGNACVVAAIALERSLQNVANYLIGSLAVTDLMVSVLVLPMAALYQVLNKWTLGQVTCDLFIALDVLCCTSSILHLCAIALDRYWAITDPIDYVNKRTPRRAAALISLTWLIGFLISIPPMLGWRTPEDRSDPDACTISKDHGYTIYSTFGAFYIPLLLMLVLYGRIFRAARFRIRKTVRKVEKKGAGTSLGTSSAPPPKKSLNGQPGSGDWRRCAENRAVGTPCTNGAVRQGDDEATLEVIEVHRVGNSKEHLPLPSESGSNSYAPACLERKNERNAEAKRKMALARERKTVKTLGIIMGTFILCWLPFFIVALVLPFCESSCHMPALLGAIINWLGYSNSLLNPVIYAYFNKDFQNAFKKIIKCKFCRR
As to the kind of experiment: Binding affinity towards rat 5-hydroxytryptamine 1A receptor was evaluated using [3H]8-OH-DPAT as radioligand.

Sequence of 5-hydroxytryptamine receptor 2A (P14842 whole entry): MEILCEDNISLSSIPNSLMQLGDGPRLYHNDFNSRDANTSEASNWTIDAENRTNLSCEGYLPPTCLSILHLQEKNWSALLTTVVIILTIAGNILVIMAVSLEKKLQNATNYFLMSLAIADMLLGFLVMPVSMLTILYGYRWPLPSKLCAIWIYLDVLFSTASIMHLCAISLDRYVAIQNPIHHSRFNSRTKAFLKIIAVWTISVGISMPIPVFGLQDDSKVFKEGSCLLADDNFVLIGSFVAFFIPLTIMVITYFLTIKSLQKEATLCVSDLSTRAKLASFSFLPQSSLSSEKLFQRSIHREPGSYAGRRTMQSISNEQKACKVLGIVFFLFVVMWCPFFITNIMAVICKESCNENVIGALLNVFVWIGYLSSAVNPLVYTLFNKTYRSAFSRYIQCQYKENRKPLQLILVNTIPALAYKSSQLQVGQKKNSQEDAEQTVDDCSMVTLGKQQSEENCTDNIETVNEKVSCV
Sequence of D(2) dopamine receptor (P61169 whole entry): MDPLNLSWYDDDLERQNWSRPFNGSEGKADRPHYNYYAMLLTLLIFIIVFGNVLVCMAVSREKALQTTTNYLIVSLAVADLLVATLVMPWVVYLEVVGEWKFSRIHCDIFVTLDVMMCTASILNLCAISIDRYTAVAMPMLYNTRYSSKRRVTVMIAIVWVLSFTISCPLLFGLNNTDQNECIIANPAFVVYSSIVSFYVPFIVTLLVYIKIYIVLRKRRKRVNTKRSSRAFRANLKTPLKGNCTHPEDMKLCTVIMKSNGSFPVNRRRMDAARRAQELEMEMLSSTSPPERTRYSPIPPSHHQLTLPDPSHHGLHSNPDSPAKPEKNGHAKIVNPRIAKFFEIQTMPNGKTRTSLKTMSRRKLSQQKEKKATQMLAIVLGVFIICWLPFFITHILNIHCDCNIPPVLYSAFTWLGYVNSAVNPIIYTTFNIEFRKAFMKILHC

`COc1ccc2c(c1)CC(CCN1CCN(c3ccccc3)CC1)CC2` (stereo unspecified): the IC50 in experiment [1] was found to be 230 nM; in experiment [2] it was 260 nM; in experiment [4], 80 nM; in experiment [6], 100 nM; in experiment [8], 3.6 nM. Besides, the results for the Selectivity ratio in experiment [3], in experiment [5] and in experiment [7] were 72, 28 and 64, respectively.
On to `COc1ccc2c(c1)CCC(CCN1CCN(c3ccccc3)CC1)C2` (stereo unspecified), for which the IC50 in experiment [1] worked out at 86 nM; in experiment [2], 160 nM; in experiment [4], 79 nM; in experiment [6], 120 nM; in experiment [8], 3.7 nM. Also, the Selectivity ratio in experiment [3] is 43; in experiment [5], 32; in experiment [7], 23.
